Values joined by “and” are separate entries in the source; they are usually repeats but may differ in a detail not shown here. Identical values can stand only once. *1 amine or outer side, *2 acyl side, *3 side chain or, on linkers, in order; H or OH if unused. Bridges are numbered along the chain shown (N, C = ends). Bi = bismuth bicyclization of the Cys thiols (peptides reacted with BiBr3), [Bi]([*:1])([*:2])[*:3]; Lys(NF) = lysine with naphthofluorescein (NF) attached to its side chain; Lys(dye) = not defined here; AEEA = NCCOCCOCC(=O)O
Each molecule was assayed on HeLa cells (assay: Flow cytometry of HeLa cells, total cellular uptake of TMR-labeled peptides). Conditions: 5 μM TMR-labeled peptide, 2 h, 37° C., relative to CPP12 (100%).
Type: cell-based
Experimental: (§1) Flow cytometry. HeLa cells were cultured in 12-well plates (1.5×10^5 cells/well) overnight. The following day, cells were incubated with 5 μM fluorescently labeled peptide for 2 h in DMEM supplemented with 1% FBS and 1% antibiotic solution. DMSO was used as a negative control. After incubation, cells were detached from plate with 350 μL of 0.25% Trypsin-EDTA solution, diluted with Dulbecco's phosphate buffered saline (DPBS), and pelleted at 300 g for 5 min. Cells were washed twice with DPBS, resuspended in DPBS, and analyzed on a BD FACS LSR II flow cytometer.
(§2) To evaluate their cell entry efficiencies, the BCPs and pBCPs were labeled with tetramethylrhodamine (TMR) or naphthofluorescein (NF) on a C-terminal lysine residue (FIGS. 2A, 2B, and 4). […] The labeled peptides were purified again by reversed-phase HPLC and their authenticity was confirmed by high-resolution mass spectrometry.
(§3) HeLa cells were treated with 5 μM dye-labeled BCPs (or pBCPs), CPP12, Tat, or DMSO (equal volume) for 2 h at 37° C., washed to remove any peptides in the medium, and analyzed by flow cytometry. The mean fluorescence intensity (MFI) value of TMR (which is pH insensitive) reflects the total amount of CPP inside the HeLa cells (total cellular uptake). On the other hand, NF is a pH sensitive dye, having an apparent pKa of 7.8. NF is unprotonated and fluorescent inside the neutral environment of the cytosol (and nucleus) but is nearly completely protonated and nonfluorescent in the acidic environments of endosomes and lysosomes. Thus, the MFI value of NF provides a convenient estimate of the peptides that have reached the cytosol.

Molecule | MFI^TMR (Total Cellular Uptake)
Ac-CFΦRRCRRC [BCP3] | 13 ± 2%
CRRRRCWYWC (Ac-CRRRRCWYWC-{AEEA-Lys(dye)-NH2}; linker 1-6-10 via Bi (inferred); reading uncertain) [pBCP1] | 9.3 ± 1.9%
CARCRRRWYWC (Ac-CARCRRRWYWC-{AEEA-Lys(dye)-NH2}; linker 1-4-11 via Bi (inferred); reading uncertain) [pBCP3] | 3%
CFWRCRRC (Ac-CFWRCRRC-{AEEA-Lys(dye)-NH2}; linker 1-5-8 via Bi (inferred); reading uncertain) [pBCP6] | 9.0 ± 0.7%
CARCRRYWC (Ac-CARCRRYWC-{AEEA-Lys(dye)-NH2}; linker 1-4-9 via Bi (inferred); reading uncertain) [pBCP5] | 9.2%
CWYRRCRAC (Ac-CWYRRCRAC-{AEEA-Lys(dye)-NH2}; linker 1-6-9 via Bi (inferred); reading uncertain) [pBCP4] | 11 ± 1%
CRRRWYWCAAC (Ac-CRRRWYWCAAC-{AEEA-Lys(dye)-NH2}; linker 1-8-11 via Bi (inferred); reading uncertain) [pBCP8] | 8.4%
Ac-CRRRRCΦFC [BCP2] | 15 ± 4%
Ac-CFΦCRRRRC [BCP1] | 12 ± 2%
CRRCRWFC (Ac-CRRCRWFC-{AEEA-Lys(dye)-NH2}; linker 1-4-8 via Bi (inferred); reading uncertain) [pBCP7] | 10 ± 0.1%

What follows are molecules tested on HeLa cells (assay: Flow cytometry of HeLa cells, cytosolic entry of NF-labeled peptides). Conditions: 2 μM NF-labeled peptide, 2 h, 37° C., 1% FBS, relative to CPP12 (100%).
Type: cell-based
Experimental: as §1, §2, §3
Note that cell entry assays were performed by treating HeLa cell with 2 μM naphthofluorescein (NF)-labeled peptide for 2 h at 37° C. Under this condition, the BCPs enter the cell almost exclusively by endocytosis and endosomal escape. A small fraction of the CPP12^NF-treated cells (˜10%) underwent direct translocation of CPP12^NF; this fraction of highly fluorescent cells was not included in the data analysis. The cellular entry of pBCP427-4 was confirmed by live-cell confocal microscopy (FIG. 6).
BCP16a, BCP16b, and pBCP427-4a were labeled with NF and their cytosolic entry efficiencies were assessed by flow cytometry analysis of HeLa cells after treatment with 2 μM peptide at 37° C. for 2 h. […] CPP12 was previously shown to be highly sensitive to serum proteins (Buyanova, M., et al., (2022). Discovery of a Cyclic Cell-Penetrating Peptide with Improved Endosomal Escape and Cytosolic Delivery Efficiency. Molecular pharmaceuties, 19 (5). 1378-1388).

Molecule | MFI^NF (Cytosolic Entry)
Ac-CWSNWCFQRRC (Ac-CWSNWCFQRRC-{AEEA-Lys(NF)-NH2}; linker 1-6-11 via Bi (inferred)) [pBCP427-5] | 76 ± 1%
Ac-CWSNWFCFQRRCRRF (Ac-CWSNWFCFQRRCRRF-{AEEA-Lys(NF)-NH2}; linker 1-7-12 via Bi (inferred)) [pBCP427-1] | 94 ± 22%
Ac-CWSNWFCQRRC (Ac-CWSNWFCQRRC-{AEEA-Lys(NF)-NH2}; linker 1-7-11 via Bi (inferred)) [pBCP427-6] | 65 ± 1%
Ac-CRRRφCF(dNle)QWC [BCP9A5-2] | 43 ± 2%
Ac-CrRrRCΦfC [BCP4] | 51 ± 16%
HS-CH2-CO-rRrRC(Bta)φC [BCP15] | 108 ± 4%
Ac-CWSNWFCFQRRCR (Ac-CWSNWFCFQRRCR-{AEEA-Lys(NF)-NH2}; linker 1-7-12 via Bi (inferred)) [pBCP427-3] | 101 ± 3%
HS-CH2-CO-φSNφFCfQrRC [BCP427-2] | 118 ± 4%
HS-CH2-CO-rRrRcΦ(Bta)φC [BCP16a] | 156% and 156 ± 4%
HS-CH2-CO-φSNφFCfQrRCRrFa [BCP427-1] | 84 ± 2%
Ac-CWSQWFCFQRRC (Ac-CWSQWFCFQRRC-{AEEA-Lys(NF)-NH2}; linker 1-7-12 via Bi (inferred)) [pBCP427-7] | 69 ± 3%
CWSNWFCFQRRCRRFA (Ac-CWSNWFCFQRRCRRFA-{AEEA-Lys(dye)-NH2}; linker 1-7-12 via Bi (inferred); reading uncertain) [pBCP427] | 131 ± 1%
CC(=O)N[C@@H](C)C(=O)N[C@@H](Cc1c[nH]c2ccccc12)C(=O)N[C@@H](CO)C(=O)N[C@@H](CC(N)=O)C(=O)N[C@@H](Cc1c[nH]c2ccccc12)C(=O)N[C@@H](Cc1ccccc1)C(=O)N[C@@H](C)C(=O)N[C@@H](Cc1ccccc1)C(=O)N[C@@H](CCC(N)=O)C(=O)N[C@@H](CCCNC(=N)N)C(=O)N[C@@H](CCCNC(=N)N)C(=O)N[C@@H](C)C(=O)NCCOCCOCC(=O)N[C@@H](CCCCNC(=O)c1ccc2c(c1)C(=O)OC21c2ccc3cc(O)ccc3c2Oc2c1ccc1cc(O)ccc21)C(N)=O [pBCP427-4Ala] | 18% and 18 ± 2%
HS-CH2-CO-rRrRCΦφC [BCP14] | 86 ± 2%
Ac-CRRRφRFCQWC [BCP9A5-1] | 30 ± 1%
Ac-CWSNWFCFQRRCRR (Ac-CWSNWFCFQRRCRR-{AEEA-Lys(NF)-NH2}; linker 1-7-12 via Bi (inferred)) [pBCP427-2] | 45 ± 1%
HS-CH2-CO-rRrRCφ(Bta)φC [BCP16b] | 98% and 98 ± 1%

Same assay, conditions: 2 μM NF-labeled peptide, 2 h, 37° C., 10% FBS, relative to CPP12

Molecule | cytosolic entry efficiency in the presence of 10% FBS
HS-CH2-CO-rRrRcΦ(Bta)φC [BCP16a] | 821%
HS-CH2-CO-rRrRCφ(Bta)φC [BCP16b] | 169%

Same assay, conditions: 5 μM

Molecule | cytosolic entry, fold less active than CPP12 | cytosolic entry, fold more active than Tat
CWYWRRCRAC (Ac-CWYWRRCRAC-{AEEA-Lys(dye)-NH2}; linker 1-7-10 via Bi (inferred); reading uncertain) [pBCP10] | 6 fold | 5 fold

Same assay, conditions: 5 μM NF-labeled peptide, 2 h, 37° C., relative to CPP12 (100%)

Molecule | MFI^NF (Cytosolic Entry)
Ac-CFΦRRCrrC [BCP8] | 38 ± 1%
AWYRRARAA [pBCP4a, linear variant of pBCP4, three cysteine residues replaced with Ala] | 5.4%
Ac-CrRrRCΦfC [BCP4] | 51 ± 16%
CRRRRCWYWC (Ac-CRRRRCWYWC-{AEEA-Lys(dye)-NH2}; linker 1-6-10 via Bi (inferred); reading uncertain) [pBCP1] | 12 ± 4%
CWYCRRRC (Ac-CWYCRRRC-{AEEA-Lys(dye)-NH2}; linker 1-4-8 via Bi (inferred); reading uncertain) [pBCP11] | 14 ± 1%
Ac-CΣΦRRCrrC [BCP9] | 43%
CWYWRRCRAC (Ac-CWYWRRCRAC-{AEEA-Lys(dye)-NH2}; linker 1-7-10 via Bi (inferred); reading uncertain) [pBCP10] | 17% and 17 ± 2%
CFFFRRRCRAC (Ac-CFFFRRRCRAC-{AEEA-Lys(dye)-NH2}; linker 1-8-11 via Bi (inferred); reading uncertain) [pBCP17] | 15 ± 1%
Ac-CfΦRrCRrC [BCP10] | 56 ± 32%
CWYRRCRAC (Ac-CWYRRCRAC-{AEEA-Lys(dye)-NH2}; linker 1-6-9 via Bi (inferred); reading uncertain) [pBCP4] | 10 ± 4%
Ac-CFΦRRRRCAAAC [BCP11] | 13%
Ac-CrRrRCΦfFC [BCP5] | 45 ± 1%
CWSNWFCFQRRCRRFA (Ac-CWSNWFCFQRRCRRFA-{AEEA-Lys(dye)-NH2}; linker 1-7-12 via Bi (inferred); reading uncertain) [pBCP427] | 41% and 41 ± 5%
CWYRRRCRAC (Ac-CWYRRRCRAC-{AEEA-Lys(dye)-NH2}; linker 1-7-10 via Bi (inferred); reading uncertain) [pBCP9] | 12 ± 4%
Ac-CFΦRrRCAAC [BCP13] | 30 ± 3%
CWYRRRCAC (Ac-CWYRRRCAC-{AEEA-Lys(dye)-NH2}; linker 1-7-9 via Bi (inferred); reading uncertain) [pBCP12] | 12 ± 1%
CYYRRCRAC (Ac-CYYRRCRAC-{AEEA-Lys(dye)-NH2}; linker 1-6-9 via Bi (inferred); reading uncertain) [pBCP15] | 16 ± 3%
CWYRCRRC (Ac-CWYRCRRC-{AEEA-Lys(dye)-NH2}; linker 1-5-8 via Bi (inferred); reading uncertain) [pBCP13] | 11 ± 1%
CFFRRRCRAC (Ac-CFFRRRCRAC-{AEEA-Lys(dye)-NH2}; linker 1-7-10 via Bi (inferred); reading uncertain) [pBCP16] | 15 ± 1%

Same assay, conditions: 5 μM, linear Ala variant vs cyclized peptide

Molecule | cytosolic entry, fold less active than pBCP4
AWYRRARAA [pBCP4a, linear variant of pBCP4, three cysteine residues replaced with Ala] | ~2 fold

— patent US20260125426A1, “CYCLIC CELL-PENETRATING PEPTIDES AND USES THEREOF” (Ohio State Innovation Foundation, priority 2022, published 2026)
